Legend:
Assay type in all cases: functional
SR = assay: Growth inhibition of human SR cells after 24 hrs by MTT assay
HOP-62 = assay: Growth inhibition of human HOP62 cells after 24 hrs by MTT assay; settings: HOP-62, 24 h
UO-31 = assay: Growth inhibition of human UO31 cells at 10 uM after 24 hrs by MTT assay relative to control; design: scale not given: the % may be the effect or the level left
T47D = assay: Growth inhibition of human T47D cells at 10 uM after 24 hrs by MTT assay relative to control; design: scale not given: the % may be the effect or the level left
SF-268 = assay: Growth inhibition of human SF268 cells after 24 hrs by MTT assay; settings: SF-268, 24 h
OVCAR-8 = assay: Growth inhibition of human OVCAR8 cells after 24 hrs by MTT assay; settings: OVCAR-8, 24 h
UACC-62 = assay: Growth inhibition of human UACC62 cells after 24 hrs by MTT assay; settings: UACC-62, 24 h
HL-60(TB) = assay: Growth inhibition of human HL-60(TB) cells at 10 uM after 24 hrs by MTT assay relative to control; design: scale not given: the % may be the effect or the level left
SW-620 = assay: Growth inhibition of human SW620 cells after 24 hrs by MTT assay; settings: SW-620, 24 h
NCI-H226 = assay: Growth inhibition of human NCI-H226 cells after 24 hrs by MTT assay; settings: NCI-H226, 24 h
SK-MEL-2 = assay: Growth inhibition of human SK-MEL-2 cells at 10 uM after 24 hrs by MTT assay relative to control; design: scale not given: the % may be the effect or the level left
[1] = read-out: pLC50 (the source's name) (converted)
[2] = read-out: LC50 (the source's name)

`Cc1onc(-c2c3ccccc3c(Cl)c3ccccc23)c1C(=O)Nc1cc(C(=O)NCCCN(C)CCCNC(=O)c2cc(NC(=O)c3c(-c4c5ccccc5c(Cl)c5ccccc45)noc3C)cn2C)n(C)c1` showed an LC50 (SR) of 100000 nM, a TGI (SR) of 2030 nM and a GI50 (SR; read-out: GI50) of 394 nM. It also gave a GI50 (SR; read-out: pGI50 (converted)) of 398 nM, a CC50 (SR; [1]) of over 100000 nM and a TGI (HOP-62) of 2650 nM. The GI50 (HOP-62; read-out: GI50) was 1360 nM, the CC50 (HOP-62; [2]) was 5140 nM and the GI50 (HOP-62; read-out: pGI50 (converted)) was 1350 nM. For the same compound, the CC50 (HOP-62; [1]) was 5130 nM, the Activity (UO-31) was -80.7% and the Activity (T47D) was -81.41%. For the same compound, the TGI (SF-268) was 2900 nM, the GI50 (SF-268; read-out: GI50) was 1390 nM and the GI50 (SF-268; read-out: pGI50 (converted)) was 1380 nM. It also gave a TGI (OVCAR-8) of 4090 nM, a GI50 (OVCAR-8; read-out: GI50) of 1970 nM and a GI50 (OVCAR-8; read-out: pGI50 (converted)) of 2000 nM. For the same compound, the TGI (UACC-62) was 3440 nM, the GI50 (UACC-62; read-out: GI50) was 1700 nM and the GI50 (UACC-62; read-out: pGI50 (converted)) was 1700 nM. The Activity (HL-60(TB)) was -94.78%, the TGI (SW-620) was 2750 nM and the GI50 (SW-620; read-out: GI50) was 1440 nM. For the same compound, the CC50 (SW-620; [2]) was 5240 nM, the GI50 (SW-620; read-out: pGI50 (converted)) was 1450 nM and the CC50 (SW-620; [1]) was 5250 nM. It also gave a TGI (NCI-H226) of 29400 nM, a GI50 (NCI-H226; read-out: GI50) of 3150 nM and a CC50 (NCI-H226; [2]) of 100000 nM. The GI50 (NCI-H226; read-out: pGI50 (converted)) was 3160 nM, the CC50 (NCI-H226; [1]) was over 100000 nM and the Activity (SK-MEL-2) was -77.54%.

— ChEMBL document CHEMBL1152405, “Bis-anthracenyl isoxazolyl amides have enhanced anticancer activity” (Bioorg Med Chem Lett, 2009)
